Laboratory results as given in patent US7419954B2, “Staphylococcus peptides for bacterial interference” (priority 1998, dated 2008).
Where a SMILES comes first, the peptide text is derived from it. Bridges are numbered along the chain shown (N, C = ends).

What was measured:
[1] = Determination of AIP-II half-life: incubation in PBS or rabbit serum, then dose-response activation of β-lactamase induction; format: cell-based, S. aureus; conditions: rabbit, rabbit serum; from EC50 shift PBS vs serum; given as in vivo
Description: (§1) Determination of AIP-II half-life. To approximate the active lifetime of AIP, a synthetic version of AIP-IL (Lyon et al. (2002) Biochemistry 41, 10095-104) was incubated in PBS or rabbit serum at 37° C. for 4 hours. The sample was diluted and a dose-response assay for activation of β-lactamase induction of strain RN7206 carrying the agrCA-II agrp3-blaZ reporter fusion was performed as previously described (Lyon et al. (2002) supra; Wright III et al. (2004) Proc. Natl. Acad. Sci., USA).

[2] = test system: strain RN7206 carrying the agrCA-II agrp3-blaZ reporter fusion; experiment: as above; format: cell-based, S. aureus; conditions: normal rabbit serum
Description: as §1

[3] = test system: agr-I bacteria (RN6734) carrying agrp3-lux or blaZp-lux; experiment: Murine subcutaneous abscess model with in vivo bioluminescence imaging; parameters: species or system SKH-1 mice; conditions: mice, single dose 10 μg co-injected with agr-I bacteria
Description: Murine subcutaneous abscess model. Groups (n=3 per variable examined) of hairless, euthymic SKH-1 (ISL) mice (Charles River) were used in the murine subcutaneous abscess model (Bunce et al. (1992) Infect. Immun. 60, 2636-40). In this model, staphylococci are injected subcutaneously with cytodex beads, and an abscess develops at the site of injection 2-3 days later, then sloughs and drains. The organisms grow rapidly initially, after which the population levels out and remains constant thereafter. Polymorphonuclear leuykocytes (PMNs) are attracted to the developing lesion by bacterial products and by pro-inflammatory cytokines, reaching maximum numbers by about 6 hours.
Bacteria were thawed, diluted to appropriate cell density, mixed with sterile cytodex beads (Sigma) and injected subcutaneously in a volume of 0.1 ml in the flank region. […] Mice were fed a standard diet ad libitum and monitored daily for signs of distress. Colony forming units (CFU) per abscess were determined by plating serial dilutions of excised lesions homogenized in PBS plus 0.5% Triton X-100.
Measurement of bioluminescence in vivo. […] For the graphs, the signal collected on a portion of the CCD array corresponding to the area of injected bacteria was determined in photons/sec/cm^2/sr, referred to as relative light units (RLU), and plotted vs. time after initiation of infection.

[4] = target: AgrC receptor of group I S. aureus (Staphylococcus aureus); experiment: cell-based or functional assay
[5] = target: AgrC receptor of group II S. aureus (Staphylococcus aureus); experiment: cell-based or functional assay
[6] = target: AgrC receptor of group III S. aureus (Staphylococcus aureus); experiment: cell-based or functional assay
[7] = target: agr response in group I (RN6390B) S. aureus; experiment: agr P3-blaZ β-lactamase reporter assay, activation of the agr response; format: cell-based; conditions: early exponential phase, 55 minutes
Description: (§2) The synthetic AgrD peptides shown in Table 1 include the following: Agr D1 Thiolactone. […] (SEQ ID NO: 9): Agr D2 Thiolactone, […] (SEQ lID NO: 1): Agr D2 Linear Thioester, […] (SEQ ID NO: 1): Agr D2 Linear Free Acid […] (SEQ ID NO: 1); Agr D2 Lactone, […] (SEQ ID NO: 1); and Agr D2 Lactam, GVNAXSSLF (SEQ ID NO: 1).
(§3) Biological activity of synthetic AgrD peptides. Biological assays were performed using groups I (RN6390B), II (SA502A) and III (RN8463) S. aureus strains (Ji et al. (1997) supra), each containing an agr P3-blaZ fusion plasmid (Novick et al. (1995) supra). Cells were grown in CYGP medium at 37° C. to either early exponential phase for agr activation studies, or midexponential phase for agr inhibition studies. To the cultured cells were then added one of the following: buffer solution (negative control), the appropriate cell supernatant containing the natural AgrD peptide as prepared as in (Ji, G., et al., 1995) (positive control) or the synthetic peptide solution in 20 mM tris.HCl buffer at pH 6.0.

[8] = target: agr response in group II (SA502A) S. aureus; experiment: as above; format: cell-based; conditions: early exponential phase, 55 minutes
Description: as §2, §3

[9] = target: agr response in group III (RN8463) S. aureus; experiment: as above; format: cell-based; conditions: early exponential phase, 55 minutes
Description: as §2, §3

[10] = target: agr response in group I (RN6390B) S. aureus; experiment: agr P3-blaZ β-lactamase reporter assay, inhibition of the agr response; format: cell-based; conditions: for IC50 Inhibition, S. aureus Group I / IC50: group I (RN6390B), midexponential phase, 80 minutes
Description: as §2, §3

[11] = target: agr response in group II (SA502A) S. aureus; experiment: as above; format: cell-based; conditions: for inhibition of self (own group): own S. aureus group (group II)
Description: as §2, §3

[12] = target: agr response in group III (RN8463) S. aureus; experiment: as above; format: cell-based
Description: as §2, §3

[13] = test system: agr response in groups I, II and III S. aureus strains; experiment: agr P3-blaZ β-lactamase reporter assay, activation/inhibition in the three S. aureus strains; format: cell-based
Description: as §2, §3

[14] = group II (SA502A), midexponential phase, 80 minutes
[15] = group III (RN8463), midexponential phase, 80 minutes

CC(C)C[C@@H]1NC(=O)[C@H](CO)NC(=O)[C@H](CO)NC(=O)[C@@H](NC(=O)[C@H](C)NC(=O)[C@H](CC(N)=O)NC(=O)[C@@H](NC(=O)CN)C(C)C)CSC(=O)[C@H](Cc2ccccc2)NC1=O [Agr D2 Thiololactone, GVNACSSLF (SEQ lID NO: 1)] (H-GVNACSSLF; thioester 5-C)
half-life [1]: < 4 h | in vitro lifetime [2]: ~4 h | effective biological lifetime of the peptide in vivo [3]: about 3 hours

Agr D1 Thiolactone (peptide)
ED50 Activation (nM), agr P3-blaZ beta-lactamase reporter [4]: 10.2 nM | IC50 Inhibition (nM), agr P3-blaZ beta-lactamase reporter [5]: 2.9 nM | IC50 Inhibition (nM), agr P3-blaZ beta-lactamase reporter [6]: 3.2 nM

Agr D2 Lactam (peptide)
IC50 Inhibition (nM), agr P3-blaZ beta-lactamase reporter [4]: 0.21 nM

Agr D2 Lactone (peptide)
IC50 Inhibition (nM), agr P3-blaZ beta-lactamase reporter [4]: 7.9 nM

Agr D2 Thiolactone (peptide)
IC50 Inhibition (nM), agr P3-blaZ beta-lactamase reporter [4]: 3.4 nM | ED50 Activation (nM), agr P3-blaZ beta-lactamase reporter [5]: 3.6 nM | IC50 Inhibition (nM), agr P3-blaZ beta-lactamase reporter [6]: 3.1 nM

GVNAASSLF [Agr D2 Linear Thioester, GVNAASSLF (SEQ ID NO: 1)]
ED50 Activation, S. aureus Group I [7]: No Activation | ED50 Activation, S. aureus Group II [8]: No Activation | ED50 Activation, S. aureus Group III [9]: No Activation | IC50 Inhibition, S. aureus Group I [10]: No Inhibition | IC50 Inhibition, S. aureus Group II [11, 14]: No Inhibition | IC50 Inhibition, S. aureus Group III [12, 15]: No Inhibition | activation/inhibition of the agr response ([13]; added to cultured cells at μM concentrations): unable to either activate or inhibit

GVNASSSLF (SEQ ID NO: 1) [Agr D2 Lactone]
ED50 Activation, S. aureus Group I [7]: No Activation | ED50 Activation, S. aureus Group II [8]: No Activation | ED50 Activation, S. aureus Group III [9]: No Activation | inhibition of the agr response in group I S. aureus strains [10]: able to inhibit | IC50 [10]: 7.9 nM | IC50 Inhibition, S. aureus Group II [11, 14]: No Inhibition | inhibition of self (own group) [11]: do not inhibit self | inhibition of the agr response in group III S. aureus strains [12]: able to inhibit | activation of the agr response in any of the three S. aureus strains [13]: unable to activate

GVNASSSLF [Agr D2 Linear Free Acid, GVNASSSLF (SEQ ID NO: 1)]
ED50 Activation, S. aureus Group I [7]: No Activation | ED50 Activation, S. aureus Group II [8]: No Activation | ED50 Activation, S. aureus Group III [9]: No Activation | IC50 Inhibition, S. aureus Group I [10]: No Inhibition | IC50 Inhibition, S. aureus Group II [11, 14]: No Inhibition | IC50 Inhibition, S. aureus Group III [12, 15]: No Inhibition

GVNAXSSLF (SEQ ID NO: 1) [Agr D2 Lactam]
ED50 Activation, S. aureus Group I [7]: No Activation | ED50 Activation, S. aureus Group II [8]: No Activation | ED50 Activation, S. aureus Group III [9]: No Activation | inhibition of the agr response in group I S. aureus strains [10]: able to inhibit | IC50 [10]: 0.21 nM | IC50 Inhibition, S. aureus Group II [11, 14]: No Inhibition | inhibition of self (own group) [11]: do not inhibit self | inhibition of the agr response in group III S. aureus strains [12]: able to inhibit | activation of the agr response in any of the three S. aureus strains [13]: unable to activate

YSTCDFIM [Agr D1 Thiolactone, YSTCDFIM (SEQ ID NO: 9)]
EC50 ([7]; read-out: ED50 Activation, S. aureus Group I): 10.2 nM | ED50 Activation, S. aureus Group II [8]: No Activation | ED50 Activation, S. aureus Group III [9]: No Activation | IC50 Inhibition, S. aureus Group I [10]: No Inhibition | IC50 [11, 14]: 2.9 nM | IC50 [12, 15]: 3.2 nM
